From publication PMC8268575 (International Journal of Molecular Sciences, 2021)

Experiments:
HUVEC = experiment: Substrate cleavage in HUVEC, supernatant analysed by MALDI-TOF/TOF; format: in vitro ADME, human; details: PRCP-inhibited (1 µM compound 8o) or PRCP/ACE2-inhibited HUVEC compared with control or ACE2-inhibited (1 µM DX600) HUVEC, 100 µM (pyr)-apelin-13, n = 4
Description: (§1) The experiment was independently conducted 4 times. […] The supernatants were desalted and concentrated by use of C18 ZipTips (Merck-Millipore, Burlington, MA, USA) and eluted directly on the MALDI target in 70% acetonitrile/0.1% TFA. Subsequently, a MALDI matrix solution of 2.5 mg/mL α-cyano-4-hydroxycinnamic acid in 70% acetonitrile/0.1% TFA was applied on each spot, air-dried at room temperature, and the target was introduced into a 4800 plus MALDI TOF/TOF^TM Analyzer. Mass spectrometry (MS) spectra (mass range: 600–4000 Da) were acquired in positive reflector mode with a laser intensity of 5000. To confirm the identity of the most important peptides, MS/MS spectra were generated by use of collision induced dissociation with a laser intensity of 5500. Calibration was done during analysis using the 6-peptide mixture (AB Sciex, Framingham, MA, USA). Mass spectra were generated by use of the 4000 Series Explorer and analyzed by mMas. […] The ratio of the peak intensity of the cleaved substrate to the peak intensity of the intact substrate is an indication for the C-terminal cleavage of the substrates. To check for additional cleavage sites, a search for other product peaks was completed. Statistical analysis was performed using SPSS software version 27 (IBM). Two-way ANOVA analysis was conducted to examine the effect of the two independent variables (treatment duration and treatment option) on the ratio of the peak intensities.

recombinant human PREP = molecular target: T1, recombinant human PREP (Homo sapiens, UniProt P48147); experiment: Cleavage by recombinant PREP, MALDI-TOF/TOF; details: pH 7.4 (0.1 M potassium phosphate, 1 mM EDTA, 5 mM DTT), 100 µM substrate, 0 s to 1 h
T1 sequence (P48147 1-710): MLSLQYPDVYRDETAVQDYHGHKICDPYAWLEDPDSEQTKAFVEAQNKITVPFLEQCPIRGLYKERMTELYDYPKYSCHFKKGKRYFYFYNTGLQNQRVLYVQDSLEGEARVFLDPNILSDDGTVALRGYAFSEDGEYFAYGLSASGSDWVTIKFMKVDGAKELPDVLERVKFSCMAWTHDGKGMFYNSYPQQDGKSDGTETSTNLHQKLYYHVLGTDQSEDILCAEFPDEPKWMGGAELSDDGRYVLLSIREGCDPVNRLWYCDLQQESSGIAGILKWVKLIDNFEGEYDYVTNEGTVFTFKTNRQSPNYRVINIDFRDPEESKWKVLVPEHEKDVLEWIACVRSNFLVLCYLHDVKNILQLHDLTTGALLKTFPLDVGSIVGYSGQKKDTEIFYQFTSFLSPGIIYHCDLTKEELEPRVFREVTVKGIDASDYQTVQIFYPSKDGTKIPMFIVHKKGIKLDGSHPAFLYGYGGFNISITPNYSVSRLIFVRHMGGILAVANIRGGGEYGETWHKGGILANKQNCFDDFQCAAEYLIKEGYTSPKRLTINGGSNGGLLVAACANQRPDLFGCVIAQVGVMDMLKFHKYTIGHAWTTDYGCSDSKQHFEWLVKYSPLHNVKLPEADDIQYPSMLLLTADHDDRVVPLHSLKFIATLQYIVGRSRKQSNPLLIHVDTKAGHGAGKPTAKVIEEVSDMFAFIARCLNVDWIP
Description: Supplementary Material File S3. Cleavage by recombinant PREP
Recombinant human PREP, expressed in BL21 (DE3) cells as previously described, was […]
(Laboratory for Medicinal Chemistry, University of Antwerp) or vehicle control at pH 7.4 (0.1 M potassium phosphate, 1 mM EDTA and 5 mM DTT). 100 μM substrate ((pyr)-apelin-13, (pyr)-apelin-13(1-12), Ang II or α-MSH 1-13) or vehicle control (PBS) was added. The reaction was stopped by acidification (pH<3) with 0.1% TFA after different time periods (0 s, 30 s, 1 min, 5 min, 15 min, 30 min or 1 h) and samples were stored at -80 °C.
A search for product peaks of the different peptides was conducted.
1. Van Elzen, R.; Schoenmakers, E.; Brandt, I.; Van Der Veken, P.; Lambeir, A.M.
Ligand-induced conformational changes in prolyl oligopeptidase: A kinetic approach.

HAoEC = experiment: Substrate cleavage in HAoEC, supernatant analysed by MALDI-TOF/TOF; format: in vitro ADME, human; details: all inhibitor-treated HAoEC (1 µM compound 8o, 1 µM DX600 or both) compared with control, 100 µM (pyr)-apelin-13, n = 4
Description: as §1

[1] = HUVEC, 10,000 cells per well, in assay medium; supernatant analysed; details: human, 37 °C, up to 24 h
[2] = HAoEC, 10,000 cells per well, in assay medium; supernatant analysed; details: human, 37 °C, up to 24 h
ACE2 [3] = experiment: ACE2 activity (Mca-Ala-Pro-Lys(Dnp)-OH) after pro-inflammatory stimulation of HUVEC; format: cell-based, human; details: 16 h, 200 ng/mL LPS, 10 ng/mL TNFα or 5 ng/mL IL-1β, n = 4-6, p = 0.098
Description: (§2) Supplementary Material File S2. ACE2 activity measurement
(§3) HUVEC and HAoEC were seeded in a 6-well plate at a density of 2.5x10^5 cells per well in 2 mL full medium for 24 h. Cells were treated with 200 ng/mL LPS, 10 ng/mL TNFα, 5 ng/mL IL-1β or vehicle control for 16 h. Supernatants were collected and concentrated four times using Centriprep Centrifugal Filter Devices, 30 K (Merck-Millipore). Cells were collected per well and lysed 1 h on ice in 75 µL lysis buffer (1% octyl glucoside, 10 mM EDTA, 70 µg/mL aprotinin, 50 mM Tris pH 8.3).
(§4) ACE2 activity was measured using the substrate Mca-Ala-Pro-Lys(Dnp)-OH (Bachem).
(§5) Samples were incubated with 100 µM of the substrate at pH 6.5 (50 mM MES, 300 mM NaCl, 10 µM Zn Cl2, 0.01% Triton X-100) in a black 96-well plate and ACE2 activity was measured kinetically for 1 h at 37 °C (λex=320 nm, λem=405 nm), using the Infinite 200 microplate reader (Tecan) and the Magellan software was used to process the data. Concentration of the generated Mca-Ala-Pro was determined by means of a standard curve. Specificity was determined by pre-incubating the samples for 15 min with 1 µM of the specific ACE2-inhibitor DX600. The ACE2 activity is expressed as units per gram (U/g) protein for the cell lysate. […] Protein concentrations were determined via the Bradford method with BSA as the standard protein. […]

ACE2 [4] = experiment: ACE2 activity (Mca-Ala-Pro-Lys(Dnp)-OH) after pro-inflammatory stimulation of HAoEC; format: cell-based, human; details: 16 h, 200 ng/mL LPS, 10 ng/mL TNFα or 5 ng/mL IL-1β, n = 4-6, p = 0.422
Description: as §2, §3, §4, §5

PRCP [5] = experiment: PRCP activity (RP-HPLC, Z-Pro-Phe) after pro-inflammatory stimulation of HAoEC; format: cell-based, human; details: 16 h, 200 ng/mL LPS, 10 ng/mL TNFα or 5 ng/mL IL-1β; for PRCP activity in the cell lysate versus vehicle control: Kruskal-Wallis p = 0.563; for PRCP activity in the supernatant versus vehicle control: n = 4–6
Description: (§6) HUVEC and HAoEC were seeded in a 6-well plate at a density of 2.5 × 10^5 cells per well in 2 mL full medium for 24 h. Subsequently, cells were treated with 200 ng/mL LPS, 10 ng/mL TNFα, 5 ng/mL IL-1β, or vehicle control for 16 h. Subsequently, supernatants were collected and concentrated four times for PRCP activity measurements using Centriprep® Centrifugal Filter Devices, 30 K (Merck-Millipore, Burlington, MA, USA). For PRCP activity measurement, cells were collected per well and lysed 1 h on ice in 75 µL lysis buffer (1% octylglucoside, 10 mM EDTA, 70 µg/mL aprotinin, 50 mM Tris pH 8.3). Appropriate stimulation was confirmed by determining interleukin-6 (IL-6) and interleukin-8 (IL-8) levels in the 16 h aspirate by use of ELISA (Supplementary Materials File S7).
(§7) PRCP activity was measured in the cellular supernatant and cell lysate using a validated high-performance liquid chromatography (HPLC) method as described previously. Ten µL of each sample was incubated in duplicate with 75 µL 8 mM Z-Pro-Phe at pH 5 (0.1 M Natrium Acetate, 10 mM EDTA) for 2 h at 37 °C. To stop the enzymatic reaction, 75 µL stop solution (10% perchloric acid and 20% acetonitrile in purified water) was added and samples were centrifuged at 12,000× g for 10 min at 4 °C. Ten µL of the supernatant was injected into a reversed phase HPLC system (Shimadzu, Kioto, Japan) and the enzymatically formed Z-Pro was determined by its UV absorbance at 210 nm. Quantification was performed by peak height measurements. The PRCP activity is expressed as units per gram (U/g) protein for the cell lysate or units per liter (U/L) for the supernatant. One unit defines the amount of enzyme that hydrolyses 1 μmol of substrate per minute. Protein concentrations were determined via the Bradford method with bovine serum albumin as the standard protein. Statistical analyses were performed using SPSS software version 27 (IBM) and graphs were designed using Graphpad Prism 9 software. Differences in PRCP activity in the cell lysate and supernatant between control and stimulated cells were evaluated by Kruskal-Wallis and Mann-Whitney U-tests. Manual Bonferroni-correction was assessed for multiple testing based on relevant pairwise comparisons. Significant results are indicated with an asterisk (* p < 0.05, ** p < 0.01).

PRCP [6] = experiment: PRCP activity (RP-HPLC, Z-Pro-Phe) after pro-inflammatory stimulation of HUVEC; format: cell-based, human; details: 16 h, 200 ng/mL LPS, 10 ng/mL TNFα or 5 ng/mL IL-1β; for PRCP activity in the cell lysate versus vehicle control: Kruskal-Wallis p = 0.066; for PRCP activity in the supernatant versus vehicle control: n = 4–6
Description: as §6, §7

CSCC[C@H](NC(=O)[C@@H]1CCCN1C(=O)CNC(=O)[C@H](CCCCN)NC(=O)[C@H](Cc1c[nH]cn1)NC(=O)[C@H](CO)NC(=O)[C@H](CC(C)C)NC(=O)[C@H](CCCNC(=N)N)NC(=O)[C@@H]1CCCN1C(=O)[C@H](CCCNC(=N)N)NC(=O)[C@@H]1CCC(=O)N1)C(=O)N1CCC[C@H]1C(=O)O [(pyr)-apelin-13(1–12)]
(pyr)-apelin-13(1–12) detected in supernatant after 24 h (HUVEC): Significantly less
Cleavage by recombinant human PREP (recombinant human PREP): did not cleave
(pyr)-apelin-13(1–12) observed in supernatant after 24 h (HAoEC): significantly less

Ac-SYSMEHFRWGKPV-NH₂
cleaved bond [1]: P12-V13
fragment found [1]: α-MSH 1-10
cleaved bond [2]: P12-V13
fragment found [2]: α-MSH 1-10

IL-1β: pro-inflammatory stimulus, 5 ng/mL
ACE2 activity in the cell lysate versus vehicle control (ACE2 [3]): No difference
ACE2 activity in the cell lysate versus vehicle control (ACE2 [4]): No difference
PRCP activity in the cell lysate versus vehicle control (PRCP [5]): no difference
PRCP activity in the supernatant versus vehicle control (PRCP [5]): increase in PRCP activity
PRCP activity in the cell lysate versus vehicle control (PRCP [6]): no difference
PRCP activity in the supernatant versus vehicle control (PRCP [6]): increase in PRCP activity

TNFα
ACE2 activity in the cell lysate versus vehicle control (ACE2 [3]): No difference
ACE2 activity in the cell lysate versus vehicle control (ACE2 [4]): No difference
PRCP activity in the cell lysate versus vehicle control (PRCP [5]): no difference
PRCP activity in the supernatant versus vehicle control (PRCP [5]): increase in PRCP activity
PRCP activity in the cell lysate versus vehicle control (PRCP [6]): no difference
PRCP activity in the supernatant versus vehicle control (PRCP [6]): increase in PRCP activity
